In article PMC4961458 (eLife, 2016):

Assays:
ERα = ERα (Homo sapiens, UniProt P03372); assay: MCF7 ERα In-Cell Western assay; settings: MCF7, 4 hr
PR-A = biological target: T1, PR-A (Homo sapiens, UniProt P06401); assay: PR-A transcriptional reporter assay, antagonist mode (HEPG2 cells)
T1 sequence (P06401 1-769 isoform P06401-2): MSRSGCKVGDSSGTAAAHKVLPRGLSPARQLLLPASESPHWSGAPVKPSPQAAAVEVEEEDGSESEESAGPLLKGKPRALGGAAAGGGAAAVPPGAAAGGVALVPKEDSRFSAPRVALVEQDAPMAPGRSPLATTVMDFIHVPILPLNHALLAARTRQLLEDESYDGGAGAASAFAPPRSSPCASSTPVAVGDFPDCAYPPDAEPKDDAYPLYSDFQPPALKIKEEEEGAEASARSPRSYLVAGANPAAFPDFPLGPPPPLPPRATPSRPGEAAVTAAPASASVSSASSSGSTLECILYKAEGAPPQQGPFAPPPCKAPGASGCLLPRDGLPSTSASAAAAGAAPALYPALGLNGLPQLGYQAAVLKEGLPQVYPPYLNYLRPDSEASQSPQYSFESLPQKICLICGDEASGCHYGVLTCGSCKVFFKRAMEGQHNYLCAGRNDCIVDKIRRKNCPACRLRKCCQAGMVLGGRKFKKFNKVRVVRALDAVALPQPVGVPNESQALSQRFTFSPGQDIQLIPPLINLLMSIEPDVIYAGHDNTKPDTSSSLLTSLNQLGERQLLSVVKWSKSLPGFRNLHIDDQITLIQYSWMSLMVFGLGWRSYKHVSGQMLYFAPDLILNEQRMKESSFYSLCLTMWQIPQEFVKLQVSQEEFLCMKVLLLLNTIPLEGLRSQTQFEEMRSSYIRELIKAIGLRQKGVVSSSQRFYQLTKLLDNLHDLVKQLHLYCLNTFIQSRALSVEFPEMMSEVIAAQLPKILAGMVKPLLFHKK

Sequence of ERα (P03372 whole entry): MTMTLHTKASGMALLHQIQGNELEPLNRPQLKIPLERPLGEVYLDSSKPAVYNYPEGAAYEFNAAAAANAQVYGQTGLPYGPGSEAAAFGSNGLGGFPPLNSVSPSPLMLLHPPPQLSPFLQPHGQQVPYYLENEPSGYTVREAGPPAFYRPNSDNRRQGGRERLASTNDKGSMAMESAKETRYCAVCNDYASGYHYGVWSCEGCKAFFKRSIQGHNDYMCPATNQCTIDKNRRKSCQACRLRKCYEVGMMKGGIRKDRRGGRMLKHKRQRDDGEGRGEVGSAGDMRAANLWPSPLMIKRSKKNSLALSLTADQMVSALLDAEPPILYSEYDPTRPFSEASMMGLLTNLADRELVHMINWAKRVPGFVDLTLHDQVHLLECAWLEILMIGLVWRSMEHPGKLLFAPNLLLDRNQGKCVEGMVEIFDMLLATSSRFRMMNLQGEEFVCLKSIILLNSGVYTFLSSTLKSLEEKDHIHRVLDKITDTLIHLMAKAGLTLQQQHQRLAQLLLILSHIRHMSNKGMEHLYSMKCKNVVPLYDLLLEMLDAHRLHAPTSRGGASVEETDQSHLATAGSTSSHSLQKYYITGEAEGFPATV

SMILES | ERα degradation In-Cell Western Emax (ERα) [% Veh.] | IC50 (PR-A) [µM]
C[C@]12CC[C@@H]3c4ccc(O)cc4C[C@@H](CCCCCCCCC[S+]([O-])CCCC(F)(F)C(F)(F)F)[C@H]3[C@@H]1CC[C@@H]2O (some centres unmarked) [Fulvestrant] | 6.4 ± 2.0 | 
CC/C(=C(\c1ccc(O)cc1)c1ccc(OCCN(C)C)cc1)c1ccccc1 [4-OH Tam, 4-hydroxytamoxifen] |  | 12 ± 4.5
